Ten compounds from ChEMBL document CHEMBL1201862, “PubChem BioAssay data set” (2004) can be followed below.

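Protocol summary: plate cells (96-well), add compound at 5 concentrations, incubate 48 h, interpolate endpoints linearly. GI50: concentration for 50% inhibition of growth.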 Active and inactive are the calls of the source. Rule as the data show it: active = GI50 up to about 1.1 µM and inactive = higher.

Some test systems named below: UACC-257; HOP-92; HCT-116; K562; T47D; MDA-MB-231; SK-MEL-5; 786-0; UO-31; U-251; NCI-H226; Hs-578T; KM12; CCRF-CEM; SN12C; SK-OV-3; HCT-15; M14; MOLT-4; OVCAR-4.
Assay in all cases: growth of human tumour cells (NCI), 48 h

On to `CC(=O)C(=C(c1ccccc1)c1ccccc1)c1ccccc1`, for which the GI50 with UACC-257 was > 100 µM (inactive); in the assay with HOP-92, > 100 µM (inactive); in the assay with HCT-116, > 100 µM (inactive); in the assay with K562 it was 62.7 µM (inactive); in the assay with T47D it was > 100 µM (inactive); in the assay on MDA-MB-231, > 100 µM (inactive). The GI50 with SK-MEL-5, with 786-0, in the assay with UO-31, in the assay with U-251, in the assay with NCI-H226 and in the assay on Hs-578T was > 100 µM (inactive) each time. Moreover, the GI50 with KM12 is > 100 µM (inactive); in the assay with CCRF-CEM it was 40.7 µM (inactive); in the assay on SN12C, > 100 µM (inactive); in the assay with SK-OV-3, > 100 µM (inactive); with HCT-15, 86.7 µM; with M14, > 100 µM (inactive). Besides, the GI50 with MOLT-4 is 87.5 µM (inactive); in the assay on OVCAR-4, 70 µM (inactive).
Take `C(=C\c1nccs1)/c1cccc(/C=C/c2nccs2)n1`: the GI50 in the assay on UACC-257 was > 50 µM (inactive); in the assay on HOP-92, > 50 µM (inactive); in the assay with HCT-116 it was > 50 µM (inactive); in the assay on K562 it was > 50 µM (inactive); with T47D, 31.2 µM (inactive); with MDA-MB-231 it was > 50 µM (inactive). For the same compound, the GI50 with SK-MEL-5 is > 50 µM (inactive); with 786-0 it was > 50 µM (inactive); with UO-31, > 50 µM (inactive); with U-251, 34.8 µM (inactive); in the assay on NCI-H226 it was > 50 µM (inactive); in the assay with Hs-578T, > 50 µM (inactive). In addition, the GI50 was > 50 µM (inactive) with KM12; > 50 µM (inactive) with CCRF-CEM; > 50 µM (inactive) in the assay with SN12C; > 50 µM (inactive) in the assay on SK-OV-3; more than 50 µM with HCT-15; > 50 µM (inactive) with M14. The figures for the GI50 in the assay on MOLT-4 and with OVCAR-4 were 38.4 µM (inactive) and > 50 µM (inactive), respectively.
In the case of `Cc1nnc2n1N=C(c1cc(F)c(Cl)cc1Cl)/C(=C/c1ccc(Cl)cc1)S2`, the GI50 with UACC-257 was 17 µM (inactive); in the assay on HOP-92, 19.6 µM (inactive); in the assay with HCT-116 it was 7 µM (inactive); in the assay with K562, 17.5 µM (inactive); with T47D, 34 µM (inactive); in the assay on MDA-MB-231, 15.8 µM (inactive). Also, the GI50 was 19.2 µM (inactive) with SK-MEL-5; 16.8 µM (inactive) with 786-0; 11.3 µM (inactive) with UO-31; 17 µM (inactive) in the assay with U-251; 23.2 µM (inactive) with NCI-H226; 43.1 µM (inactive) with Hs-578T. Further, the GI50 in the assay with KM12 is 12.8 µM (inactive); with CCRF-CEM it was 19.1 µM (inactive); in the assay with SN12C, 14.9 µM (inactive); in the assay with SK-OV-3, 43.4 µM (inactive); with HCT-15, 13.8 µM; with M14, 17.9 µM (inactive). Further, the GI50 with MOLT-4 is 9.91 µM (inactive); with OVCAR-4, 13.7 µM (inactive).
Take `C=C(C)C(=O)OC1CC2(C)OC2CC(OC(C)=O)/C(C)=C/C2OC(=O)C(=C)C21` (stereo not given): the GI50 in the assay with UACC-257 is 6.5 µM (inactive); in the assay with HOP-92, 3.64 µM (inactive); in the assay on HCT-116, 1.7 µM (inactive); in the assay with K562, 0.56 µM (active); in the assay with T47D, 3.48 µM (inactive); with MDA-MB-231 it was 6.49 µM (inactive). Moreover, the GI50 with SK-MEL-5 was 8.2 µM (inactive); with 786-0, 2.22 µM (inactive); in the assay on UO-31, 2.68 µM (inactive); in the assay with U-251, 12.5 µM (inactive); in the assay with NCI-H226 it was 17.6 µM (inactive); in the assay with Hs-578T, 2.3 µM (inactive). Besides, the GI50 in the assay with KM12 was 11.2 µM (inactive); in the assay with CCRF-CEM, 0.0895 µM (active); with SN12C, 2.52 µM (inactive); in the assay on SK-OV-3 it was 29 µM (inactive); in the assay on HCT-15 it was 0.566 µM; with M14, 3.01 µM (inactive). For the same compound, the GI50 in the assay on MOLT-4 is 0.441 µM (active); in the assay with OVCAR-4 it was 9.48 µM (inactive).
Take `CC(C)(Cl)C(Cl)CC/C(CBr)=C(\Cl)CBr` (stereo not given): the GI50 was 2.08 µM (inactive) in the assay with UACC-257; 1.75 µM (inactive) in the assay on HOP-92; 2.23 µM (inactive) with HCT-116; 0.586 µM (active) with K562; 1.96 µM (inactive) in the assay with T47D; 2 µM (inactive) with MDA-MB-231. The GI50 with SK-MEL-5 is 1.79 µM (inactive); in the assay on 786-0 it was 1.36 µM (inactive); in the assay on UO-31 it was 3.08 µM (inactive); with U-251, 1.83 µM (inactive); with NCI-H226, 1.79 µM (inactive); with Hs-578T it was 1.85 µM (inactive). For the same compound, the GI50 in the assay on KM12 was 2.08 µM (inactive); in the assay on CCRF-CEM, 0.15 µM (active); in the assay with SN12C it was 2.45 µM (inactive); with SK-OV-3 it was 4.31 µM (inactive); with HCT-15, 1.75 µM; with M14, 1.6 µM (inactive). The figures for the GI50 in the assay on MOLT-4 and with OVCAR-4 were 0.473 µM (active) and 1.51 µM (inactive), respectively.
Regarding `CCOc1ccc(NCC2CC/C(=C\c3ccc(O)cc3)C2=O)cc1` (stereo not given), the GI50 in the assay with UACC-257 is 16.9 µM (inactive); in the assay on HOP-92, 15.2 µM (inactive); in the assay on HCT-116 it was 9.64 µM (inactive); in the assay with K562 it was 3.89 µM (inactive); in the assay with T47D, 19 µM (inactive); with MDA-MB-231, 19.2 µM (inactive). Also, the GI50 with SK-MEL-5 was 19.1 µM (inactive); in the assay with 786-0, 6.65 µM (inactive); with UO-31, 19.4 µM (inactive); in the assay with U-251, 16.7 µM (inactive); with NCI-H226, 38.2 µM (inactive); in the assay with Hs-578T it was 28.8 µM (inactive). Further, the GI50 with KM12 was 12.2 µM (inactive); in the assay on CCRF-CEM it was 5.87 µM (inactive); in the assay with SN12C, 18.5 µM (inactive); with SK-OV-3, > 44.7 µM (inactive); in the assay on HCT-15 it was 6.9 µM; in the assay with M14 it was 18.1 µM (inactive). Moreover, the GI50 was 4.17 µM (inactive) with MOLT-4 and 17.2 µM (inactive) with OVCAR-4.
As for `C/C(=N\NC(N)=S)c1ccc2c(c1)Sc1ccccc1O2`, the GI50 in the assay on UACC-257 is 6.14 µM (inactive); in the assay with HOP-92, 3.17 µM (inactive); in the assay with HCT-116, 2.69 µM (inactive); in the assay on K562, 2.36 µM (inactive); with T47D it was 6.61 µM (inactive); in the assay with MDA-MB-231 it was 5.05 µM (inactive). For the same compound, the GI50 with SK-MEL-5 is 1.58 µM (inactive); with 786-0, 3.18 µM (inactive); in the assay on UO-31, 2.88 µM (inactive); in the assay on U-251, 2.37 µM (inactive); in the assay with NCI-H226, 9.23 µM (inactive); in the assay with Hs-578T, 3.78 µM (inactive). For the same compound, the GI50 was 4.19 µM (inactive) in the assay on KM12; 3.67 µM (inactive) in the assay on CCRF-CEM; 3.34 µM (inactive) in the assay on SN12C; 4.11 µM (inactive) in the assay on SK-OV-3; 0.593 µM in the assay on HCT-15; 2.4 µM (inactive) with M14. Moreover, the GI50 is 2.54 µM (inactive) in the assay with MOLT-4 and 2.47 µM (inactive) with OVCAR-4.
Consider `Nc1c(C(=O)c2ccccc2)[nH]c(NCc2ccccc2)c1C(=S)Nc1ccccc1`, for which the GI50 in the assay on UACC-257, in the assay with HOP-92, in the assay on HCT-116, in the assay on K562, in the assay with T47D and with MDA-MB-231 was > 100 µM (inactive) throughout. The GI50 in the assay with SK-MEL-5, in the assay with 786-0, with UO-31, in the assay with U-251, with NCI-H226 and in the assay on Hs-578T was > 100 µM (inactive) in each case. In addition, the GI50 in the assay with KM12 was > 100 µM (inactive); in the assay with CCRF-CEM, > 100 µM (inactive); with SN12C, > 100 µM (inactive); in the assay with SK-OV-3, > 100 µM (inactive); in the assay on HCT-15, more than 100 µM; in the assay with M14, > 100 µM (inactive). Further, the GI50 in the assay with MOLT-4 and in the assay on OVCAR-4 was > 100 µM (inactive) in each case.
`O=C(O)COc1c(Cl)cc(Cl)c2cccnc12`: the GI50 in the assay with UACC-257, in the assay on HOP-92, with HCT-116, in the assay with K562, in the assay with T47D and in the assay with MDA-MB-231 was > 100 µM (inactive) each time. Also, the GI50 in the assay with SK-MEL-5, in the assay on 786-0, in the assay with UO-31, with U-251, with NCI-H226 and in the assay on Hs-578T was > 100 µM (inactive) throughout. For the same compound, the GI50 was > 100 µM (inactive) with KM12; > 100 µM (inactive) in the assay with CCRF-CEM; > 100 µM (inactive) in the assay on SN12C; > 100 µM (inactive) with SK-OV-3; more than 100 µM with HCT-15; > 100 µM (inactive) in the assay on M14. Further, the GI50 in the assay on MOLT-4 and with OVCAR-4 was > 100 µM (inactive) each time.
In the case of `CC1(C)OC(C(=O)Nc2cc3c4ccccc4ccc3c3ccccc23)C(C(=O)N2CCCCC2)O1` (stereo not given), the GI50 in the assay with UACC-257 is > 25.1 µM (inactive); in the assay with HOP-92, 31.6 µM (inactive); in the assay with HCT-116 it was 0.507 µM (active); in the assay with K562 it was 0.619 µM (active); in the assay on T47D, 6.62 µM (inactive); in the assay with MDA-MB-231, > 38.9 µM (inactive). Further, the GI50 was 1.98 µM (inactive) with SK-MEL-5; 1.77 µM (inactive) in the assay on 786-0; 2.17 µM (inactive) in the assay with UO-31; 1.14 µM (inactive) in the assay on U-251; 60.4 µM (inactive) in the assay with NCI-H226; 3.72 µM (inactive) with Hs-578T. The GI50 in the assay on KM12 was 2.18 µM (inactive); in the assay on CCRF-CEM, 0.537 µM (active); in the assay with SN12C, 9.18 µM (inactive); with SK-OV-3, 20.6 µM (inactive); in the assay with HCT-15, 0.419 µM; with M14, 3.56 µM (inactive). For the same compound, the GI50 is 0.574 µM (active) in the assay with MOLT-4 and 21.5 µM (inactive) in the assay with OVCAR-4.
